From patent US12297194B2, “N2-phenylpyrimidine-2,4-diamine compounds, and preparation methods and methods of use thereof” (BRIDGE BIOTHERAPEUTICS, INC., priority 2021, dated 2025)

Experiments:
Format in all cases: cell-based, murine
Ba/F3 EGFR Wild-type = Ba/F3 EGFR Wild-type (Homo sapiens, UniProt P00533); experiment: CellTiter-Glo cell viability, Ba/F3 EGFR wild-type cells; conditions: 72 hours, read-out: Ba/F3 EGFR mutant cell (IC50, nM) WT
Protocol: (§1) In order to evaluate an inhibitory ability on wild-type Ba/F3 EGFR and Ba/F3 EGFR mutations in Ba/F3 cell lines by the compounds of Formula 1, the experiment was carried out as described below.
(§2) The measurement of activities on Ba/F3 cells harboring wild-type EGFR and EGFR mutants by the compounds of the present invention were determined utilizing the CELLTITER-GLO™ system from Promega, as follows. The CELLTITER-GLO™ assay is a method for measuring the ATP present in cells to determine the cell viability. Ba/F3 EGFR wild-type and Ba/F3 EGFR L858R/C797S (L/C), Ba/F3 EGFR L858R/T790M/C797S (L/T/C), Ba/F3 EGFR Del19/T790M (D/T), Ba/F3 EGFR Del19/C797S (D/C), Ba/F3 EGFR Del19/T790M/C797S (D/T/C) mutant cell lines were maintained in RPMI1640, containing […], 1% penicillin-streptomycin, […] puromycin. Cells were grown in a humidified incubator at 37° C. with […].
(§3) The analysis of an EGFR inhibitory activity by the compounds was carried out in accordance with the analysis reaction recipe below.
(§4) 2500 cells/90 μL were seeded in 96 well cell culture plate, and after 24 hours, treated with the compounds represented by Formula 1 in concentrations of 0, 0.3, 0.9, 2.7, 8.2, 24.7, 74.1, 222.2, 666.7, 2000 (nM). After the reaction of 72 hours, the plate was incubated for 30 minutes at ambient temperature, and then, was further treated with 100 μL of the CELLTITER-GLO™ reagent and was shaken for 10 minutes at ambient temperature. Finally, measurement of the luminescence values were obtained using the SPECTRAMAX™ iD3 (Molecular Devices), and the IC50 values of the compound were analyzed using the GraphPad Prism program (version 9.0.2, GraphPad Software, Inc.).

[1] = biological target: Ba/F3 EGFR L858R/T790M/C797S mutants (Homo sapiens, UniProt P00533, T790M/C797S/L858R, cells depend on it); experiment: CellTiter-Glo cell viability, Ba/F3 EGFR L858R/T790M/C797S cells; conditions: 72 hours, read-out: Ba/F3 EGFR mutant cell (IC50, nM) L/T/C
Chain of Ba/F3 EGFR L858R/T790M/C797S mutants (P00533 whole entry T790M/C797S/L858R): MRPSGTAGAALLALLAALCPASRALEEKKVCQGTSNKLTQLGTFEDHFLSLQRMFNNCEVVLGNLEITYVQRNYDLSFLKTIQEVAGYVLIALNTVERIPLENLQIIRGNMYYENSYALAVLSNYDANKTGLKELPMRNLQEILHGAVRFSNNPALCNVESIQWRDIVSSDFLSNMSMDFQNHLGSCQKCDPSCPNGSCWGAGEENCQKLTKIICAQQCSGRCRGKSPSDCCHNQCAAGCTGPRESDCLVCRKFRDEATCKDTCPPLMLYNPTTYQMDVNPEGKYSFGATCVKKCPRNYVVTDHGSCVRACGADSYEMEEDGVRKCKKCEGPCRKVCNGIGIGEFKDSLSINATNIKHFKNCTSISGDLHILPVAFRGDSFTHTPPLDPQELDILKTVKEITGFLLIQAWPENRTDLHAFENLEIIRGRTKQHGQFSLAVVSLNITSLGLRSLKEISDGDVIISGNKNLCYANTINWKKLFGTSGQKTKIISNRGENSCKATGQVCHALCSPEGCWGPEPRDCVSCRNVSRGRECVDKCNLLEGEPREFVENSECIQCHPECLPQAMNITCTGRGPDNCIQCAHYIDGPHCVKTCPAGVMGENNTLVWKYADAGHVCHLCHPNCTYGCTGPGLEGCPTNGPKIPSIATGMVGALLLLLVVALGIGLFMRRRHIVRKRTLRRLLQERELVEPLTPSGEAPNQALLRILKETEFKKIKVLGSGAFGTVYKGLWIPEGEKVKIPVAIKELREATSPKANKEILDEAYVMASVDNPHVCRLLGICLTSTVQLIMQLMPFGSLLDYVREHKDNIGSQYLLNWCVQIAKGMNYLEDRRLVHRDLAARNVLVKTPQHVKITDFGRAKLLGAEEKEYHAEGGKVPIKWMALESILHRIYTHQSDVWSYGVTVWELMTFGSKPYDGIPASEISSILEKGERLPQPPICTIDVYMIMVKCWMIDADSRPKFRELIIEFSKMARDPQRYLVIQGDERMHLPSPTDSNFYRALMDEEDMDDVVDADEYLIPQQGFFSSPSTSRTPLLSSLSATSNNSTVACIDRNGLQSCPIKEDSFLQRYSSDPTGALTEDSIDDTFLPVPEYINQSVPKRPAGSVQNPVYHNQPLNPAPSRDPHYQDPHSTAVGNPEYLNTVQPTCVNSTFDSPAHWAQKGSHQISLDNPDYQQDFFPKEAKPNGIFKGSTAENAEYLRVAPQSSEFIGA
Protocol: as §1, §2, §3, §4

[2] = biological target: Ba/F3 EGFR Del19/T790M/C797S mutants (Homo sapiens, UniProt P00533, T790M/C797S, cells depend on it, form not given); experiment: CellTiter-Glo cell viability, Ba/F3 EGFR Del19/T790M/C797S cells; conditions: 72 hours, read-out: Ba/F3 EGFR mutant cell (IC50, nM) D/T/C
Protocol: as §1, §2, §3, §4

[3] = biological target: Ba/F3 EGFR L858R/C797S mutants (Homo sapiens, UniProt P00533, C797S/L858R, cells depend on it); experiment: CellTiter-Glo cell viability, Ba/F3 EGFR L858R/C797S cells; conditions: 72 hours, read-out: Ba/F3 EGFR mutant cell (IC50, nM) L/C
Protocol: as §1, §2, §3, §4

[4] = biological target: Ba/F3 EGFR Del19/C797S mutants (Homo sapiens, UniProt P00533, C797S, cells depend on it, form not given); experiment: CellTiter-Glo cell viability, Ba/F3 EGFR Del19/C797S cells; conditions: 72 hours, read-out: Ba/F3 EGFR mutant cell (IC50, nM) D/C
Chain of Ba/F3 EGFR Del19/C797S mutants (P00533 with tags, fused parts or gaps DEL746-750/C797S, form open): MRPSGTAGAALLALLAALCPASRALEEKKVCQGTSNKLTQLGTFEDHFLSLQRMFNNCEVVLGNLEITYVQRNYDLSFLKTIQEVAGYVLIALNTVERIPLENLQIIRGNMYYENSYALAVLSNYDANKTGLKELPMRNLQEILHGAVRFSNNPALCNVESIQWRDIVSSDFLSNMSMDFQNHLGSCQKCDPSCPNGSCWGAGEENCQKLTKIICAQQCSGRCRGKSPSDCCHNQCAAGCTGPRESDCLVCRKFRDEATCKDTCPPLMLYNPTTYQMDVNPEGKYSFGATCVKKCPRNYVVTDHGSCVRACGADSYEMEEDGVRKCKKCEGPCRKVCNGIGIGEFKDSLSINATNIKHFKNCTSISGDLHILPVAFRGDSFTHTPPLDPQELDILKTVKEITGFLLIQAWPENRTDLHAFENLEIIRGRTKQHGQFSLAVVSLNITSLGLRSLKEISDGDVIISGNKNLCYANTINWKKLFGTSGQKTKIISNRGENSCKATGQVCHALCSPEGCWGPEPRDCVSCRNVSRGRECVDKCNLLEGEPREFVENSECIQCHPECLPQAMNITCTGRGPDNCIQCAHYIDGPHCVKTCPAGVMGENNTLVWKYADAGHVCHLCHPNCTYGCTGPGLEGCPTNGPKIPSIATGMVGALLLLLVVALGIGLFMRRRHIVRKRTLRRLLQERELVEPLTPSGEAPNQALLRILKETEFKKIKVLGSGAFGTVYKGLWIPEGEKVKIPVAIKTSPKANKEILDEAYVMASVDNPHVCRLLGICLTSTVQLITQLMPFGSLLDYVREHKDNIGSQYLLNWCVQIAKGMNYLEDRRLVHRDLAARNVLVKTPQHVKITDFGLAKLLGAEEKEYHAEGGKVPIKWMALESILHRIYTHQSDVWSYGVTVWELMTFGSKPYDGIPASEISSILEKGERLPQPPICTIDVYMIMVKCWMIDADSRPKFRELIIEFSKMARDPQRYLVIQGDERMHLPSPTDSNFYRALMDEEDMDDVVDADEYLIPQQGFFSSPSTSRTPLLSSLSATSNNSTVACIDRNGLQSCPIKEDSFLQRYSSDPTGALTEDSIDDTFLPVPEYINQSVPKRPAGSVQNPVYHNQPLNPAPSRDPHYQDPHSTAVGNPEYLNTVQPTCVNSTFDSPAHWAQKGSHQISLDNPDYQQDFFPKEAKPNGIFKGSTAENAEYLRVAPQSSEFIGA
Protocol: as §1, §2, §3, §4

[5] = biological target: Ba/F3 EGFR Del19/T790M mutants (Homo sapiens, UniProt P00533, T790M, cells depend on it, form not given); experiment: CellTiter-Glo cell viability, Ba/F3 EGFR Del19/T790M cells; conditions: 72 hours, read-out: Ba/F3 EGFR mutant cell (IC50, nM) D/T
Chain of Ba/F3 EGFR Del19/T790M mutants (P00533 with tags, fused parts or gaps DEL746-750/T790M, form open): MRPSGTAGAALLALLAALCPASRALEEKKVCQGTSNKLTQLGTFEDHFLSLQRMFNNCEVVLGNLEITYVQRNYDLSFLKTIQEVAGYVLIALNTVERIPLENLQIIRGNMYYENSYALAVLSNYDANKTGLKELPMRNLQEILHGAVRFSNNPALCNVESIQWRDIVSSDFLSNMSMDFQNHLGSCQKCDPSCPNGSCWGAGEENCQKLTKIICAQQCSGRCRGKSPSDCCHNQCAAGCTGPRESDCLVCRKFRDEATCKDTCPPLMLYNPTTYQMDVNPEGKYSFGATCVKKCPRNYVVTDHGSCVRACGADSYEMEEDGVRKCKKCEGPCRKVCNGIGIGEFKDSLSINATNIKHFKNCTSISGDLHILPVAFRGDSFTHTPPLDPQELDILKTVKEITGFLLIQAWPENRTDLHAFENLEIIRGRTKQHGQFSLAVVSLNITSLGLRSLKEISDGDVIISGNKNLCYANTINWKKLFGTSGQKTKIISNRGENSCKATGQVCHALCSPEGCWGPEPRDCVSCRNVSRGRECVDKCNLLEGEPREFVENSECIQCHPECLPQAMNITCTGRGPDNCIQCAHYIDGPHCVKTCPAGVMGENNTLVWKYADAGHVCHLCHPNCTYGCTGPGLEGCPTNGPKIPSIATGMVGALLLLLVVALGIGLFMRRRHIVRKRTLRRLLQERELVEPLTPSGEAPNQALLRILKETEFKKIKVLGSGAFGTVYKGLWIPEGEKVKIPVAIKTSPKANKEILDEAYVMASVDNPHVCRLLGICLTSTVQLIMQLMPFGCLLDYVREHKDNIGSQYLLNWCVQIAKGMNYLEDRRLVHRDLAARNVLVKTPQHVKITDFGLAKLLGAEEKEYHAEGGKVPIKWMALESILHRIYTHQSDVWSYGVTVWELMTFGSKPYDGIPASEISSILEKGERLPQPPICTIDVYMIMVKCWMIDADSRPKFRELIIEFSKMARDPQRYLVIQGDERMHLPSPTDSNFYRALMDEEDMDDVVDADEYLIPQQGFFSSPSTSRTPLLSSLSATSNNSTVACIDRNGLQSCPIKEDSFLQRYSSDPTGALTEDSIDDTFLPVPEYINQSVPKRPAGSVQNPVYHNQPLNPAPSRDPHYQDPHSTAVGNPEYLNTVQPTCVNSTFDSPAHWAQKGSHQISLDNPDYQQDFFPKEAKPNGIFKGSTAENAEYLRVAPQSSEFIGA
Protocol: as §1, §2, §3, §4

Chain of Ba/F3 EGFR Wild-type (P00533 whole entry, change not shown): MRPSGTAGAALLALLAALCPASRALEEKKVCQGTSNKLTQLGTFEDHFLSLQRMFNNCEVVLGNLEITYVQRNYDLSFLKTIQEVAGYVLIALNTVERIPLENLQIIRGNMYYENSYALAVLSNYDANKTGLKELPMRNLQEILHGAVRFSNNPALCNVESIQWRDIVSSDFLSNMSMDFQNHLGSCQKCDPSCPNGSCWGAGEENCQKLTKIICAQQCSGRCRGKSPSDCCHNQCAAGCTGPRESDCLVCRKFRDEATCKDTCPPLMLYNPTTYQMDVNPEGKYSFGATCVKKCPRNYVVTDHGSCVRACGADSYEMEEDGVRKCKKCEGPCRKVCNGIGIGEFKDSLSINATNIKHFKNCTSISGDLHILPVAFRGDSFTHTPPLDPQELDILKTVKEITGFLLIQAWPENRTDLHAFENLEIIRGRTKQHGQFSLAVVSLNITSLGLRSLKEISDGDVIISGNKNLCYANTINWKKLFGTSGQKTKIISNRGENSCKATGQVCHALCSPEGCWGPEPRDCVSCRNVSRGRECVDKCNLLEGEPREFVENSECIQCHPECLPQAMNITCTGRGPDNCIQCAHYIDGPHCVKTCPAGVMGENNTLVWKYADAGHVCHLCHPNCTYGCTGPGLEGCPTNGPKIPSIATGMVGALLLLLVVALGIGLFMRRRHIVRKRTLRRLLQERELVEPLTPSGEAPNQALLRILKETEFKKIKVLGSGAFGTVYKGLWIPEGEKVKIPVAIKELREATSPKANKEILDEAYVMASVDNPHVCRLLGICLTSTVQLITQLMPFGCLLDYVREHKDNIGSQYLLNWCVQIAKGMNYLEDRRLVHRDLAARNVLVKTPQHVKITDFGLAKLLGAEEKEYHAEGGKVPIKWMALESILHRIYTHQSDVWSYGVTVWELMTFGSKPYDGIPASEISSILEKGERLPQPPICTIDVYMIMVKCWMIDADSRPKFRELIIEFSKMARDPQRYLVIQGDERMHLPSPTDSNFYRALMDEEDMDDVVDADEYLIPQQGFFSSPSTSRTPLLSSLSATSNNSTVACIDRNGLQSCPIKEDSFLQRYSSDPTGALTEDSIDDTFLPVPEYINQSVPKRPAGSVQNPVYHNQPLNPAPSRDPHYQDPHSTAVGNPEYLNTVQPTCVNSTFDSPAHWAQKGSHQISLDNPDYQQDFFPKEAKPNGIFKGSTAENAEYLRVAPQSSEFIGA

CCc1cc(Nc2ncc(Br)c(Nc3ccc4nccnc4c3N(C)S(C)(=O)=O)n2)c(OC)cc1N1CCN(C2CCN(C)CC2)CC1 [Example A49, N-(6-((5-bromo-2-((5-ethyl-2-methoxy-4-(4-(1-methylpiperidin-4-yl)piperazin-1-yl)phenyl)amino)pyrimidin-4-yl)amino)quinoxalin-5-yl)-N-methylmethane sulfonamide]
GI50 (Ba/F3 EGFR Wild-type): 243 nM | GI50 [1]: 64 nM | GI50 [2]: 4 nM | GI50 [3]: 15 nM | GI50 [4]: 10 nM | GI50 [5]: 4 nM

CCc1cc(Nc2ncc(Br)c(Nc3ccc4nccnc4c3NS(C)(=O)=O)n2)c(OC)cc1N1CCC(N2CCCC2)CC1 [Example A33, N-(6-((5-bromo-2-((5-ethyl-2-methoxy-4-(4-(pyrrolidin-1-yl)piperidin-1-yl)phenyl)amino)pyrimidin-4-yl)amino)quinoxalin-5-yl)methanesulfonamide]
GI50 (Ba/F3 EGFR Wild-type): > 2000 nM | GI50 [1]: 18 nM | GI50 [2]: 6 nM | GI50 [3]: 57 nM | GI50 [4]: 4 nM | GI50 [5]: 8 nM

CCc1cc(Nc2ncc(Br)c(Nc3cccc(OC)c3N(C)S(C)(=O)=O)n2)c(OC)cc1N1CCC(N2CCN(C)CC2)CC1 [Example C29, N-(2-((5-bromo-2-((5-ethyl-2-methoxy-4-(4-(4-methylpiperazin-1-yl)piperidin-1-yl)phenyl)amino)pyrimidin-4-yl)amino)-6-methoxyphenyl)-N-methylmethane sulfonamide]
GI50 (Ba/F3 EGFR Wild-type): 669 nM | GI50 [1]: 21 nM | GI50 [2]: 5 nM | GI50 [3]: 76 nM | GI50 [4]: 5 nM | GI50 [5]: 7 nM

COc1cc(C2CCNCC2)ccc1Nc1ncc(Cl)c(Nc2ccc3nccnc3c2NS(C)(=O)=O)n1 [Example B15, N-(6-((5-chloro-2-((2-methoxy-4-(piperidin-4-yl)phenyl)amino)pyrimidin-4-yl)amino)quinoxalin-5-yl)methanesulfonamide]
GI50 (Ba/F3 EGFR Wild-type): > 2000 nM | GI50 [1]: 2140 nM | GI50 [2]: 746 nM | GI50 [3]: 1540 nM | GI50 [4]: 581 nM | GI50 [5]: 1310 nM

CCc1cc(Nc2ncc(Cl)c(Nc3ccc4c(c3N(C)S(C)(=O)=O)OCCO4)n2)c(OC)cc1N1CCC(N2CCOCC2)CC1 [Example C30, N-(6-((5-chloro-2-((5-ethyl-2-methoxy-4-(4-morpholinopiperidin-1-yl)phenyl)amino)pyrimidin-4-yl)amino)-2,3-dihydrobenzo[b][1,4]dioxin-5-yl)-N-methylmethanesulfonamide]
GI50 (Ba/F3 EGFR Wild-type): 664 nM | GI50 [1]: 35 nM | GI50 [2]: 13 nM | GI50 [3]: 38 nM | GI50 [4]: 6 nM | GI50 [5]: 10 nM

CCCc1cc(Nc2ncc(Cl)c(Nc3ccc(OC)cc3NS(C)(=O)=O)n2)c(OC)cc1N1CCC(N(C)C)CC1 [Example C12, N-(2-((5-chloro-2-((4-(4-(dimethylamino)piperidin-1-yl)-2-methoxy-5-propylphenyl)amino)pyrimidin-4-yl)amino)-5-methoxyphenyl)methanesulfonamide]
GI50 (Ba/F3 EGFR Wild-type): 731 nM | GI50 [1]: 29 nM | GI50 [2]: 9 nM | GI50 [3]: 28 nM | GI50 [4]: 6 nM | GI50 [5]: 8 nM

CCc1cc(Nc2ncc(Cl)c(Nc3ccc4nccnc4c3NS(C)(=O)=O)n2)c(OC)cc1N1CCC(N2CCN(C)CC2)CC1 [Example A2, N-(6-((5-chloro-2-((5-ethyl-2-methoxy-4-(4-(4-methylpiperazin-1-yl)piperidin-1-yl)phenyl)amino)pyrimidin-4-yl)amino)quinoxalin-5-yl)methanesulfonamide]
GI50 (Ba/F3 EGFR Wild-type): 381 nM | GI50 [1]: 9 nM | GI50 [2]: 4 nM | GI50 [3]: 26 nM | GI50 [4]: 12 nM | GI50 [5]: 4 nM

CCc1cc(Nc2ncc(Cl)c(Nc3ccc4nccnc4c3N(C)S(C)(=O)=O)n2)c(OC)cc1N1CCC(N2CC3CCC2CN3C)CC1 (stereo not drawn) [Example A47, N-(6-((5-chloro-2-((5-ethyl-2-methoxy-4-(4-(5-methyl-2,5-diazabicyclo[2.2.2]octan-2-yl)piperidin-1-yl)phenyl)amino)pyrimidin-4-yl)amino)quinoxalin-5-yl)-N-methylmethanesulfonamide]
GI50 (Ba/F3 EGFR Wild-type): 730 nM | GI50 [1]: 64 nM | GI50 [2]: 25 nM | GI50 [3]: 125 nM | GI50 [4]: 7 nM | GI50 [5]: 17 nM

CCc1cc(Nc2ncc(Cl)c(Nc3ccc4nccnc4c3N(C)S(C)(=O)=O)n2)c(OC)cc1N1CCC(N2CCCC2)CC1 [Example A43, N-(6-((5-chloro-2-((5-ethyl-2-methoxy-4-(4-(pyrrolidin-1-yl)piperidin-1-yl)phenyl)amino)pyrimidin-4-yl)amino)quinoxalin-5-yl)-N-methylmethanesulfonamide]
GI50 (Ba/F3 EGFR Wild-type): 507 nM | GI50 [1]: 35 nM | GI50 [2]: 5 nM | GI50 [3]: 28 nM | GI50 [4]: 6 nM | GI50 [5]: 8 nM

CCc1cc(Nc2ncc(Cl)c(Nc3ccc4nccnc4c3NS(C)(=O)=O)n2)c(OC)cc1N1CC2(C1)CN(C(C)C)C2 [Example B26, N-(6-((5-chloro-2-((5-ethyl-4-(6-isopropyl-2,6-diazaspiro[3.3]heptan-2-yl)-2-methoxyphenyl)amino)pyrimidin-4-yl)amino)quinoxalin-5-yl)methanesulfonamide]
GI50 (Ba/F3 EGFR Wild-type): 528 nM | GI50 [1]: 61 nM | GI50 [2]: 9 nM | GI50 [3]: 59 nM | GI50 [4]: 42 nM | GI50 [5]: 38 nM

COc1cc(C2CCNCC2)c(C)cc1Nc1ncc(Br)c(Nc2ccc3nccnc3c2NS(C)(=O)=O)n1 [Example B11, N-(6-((5-bromo-2-((2-methoxy-5-methyl-4-(piperidin-4-yl)phenyl)amino)pyrimidin-4-yl)amino)quinoxalin-5-yl)methanesulfonamide]
GI50 (Ba/F3 EGFR Wild-type): 1270 nM | GI50 [1]: 264 nM | GI50 [2]: 725 nM | GI50 [3]: 781 nM | GI50 [4]: 583 nM | GI50 [5]: 443 nM

CCS(=O)(=O)Nc1c(Nc2nc(Nc3cc(C)c(N4CCC(N5CCN(C)CC5)CC4)cc3OC)ncc2Cl)ccc2nccnc12 [Example A25, N-(6-((5-chloro-2-((2-methoxy-5-methyl-4-(4-(4-methylpiperazin-1-yl)piperidin-1-yl)phenyl)amino)pyrimidin-4-yl)amino)quinoxalin-5-yl)ethanesulfonamide]
GI50 (Ba/F3 EGFR Wild-type): 373 nM | GI50 [1]: 34 nM | GI50 [2]: 134 nM | GI50 [3]: 112 nM | GI50 [4]: 46 nM | GI50 [5]: 18 nM

CCCc1cc(Nc2ncc(Cl)c(Nc3ccc4nccnc4c3NS(C)(=O)=O)n2)c(OC)cc1N1CCC(N2CCN(C)CC2)CC1 [Example A6, N-(6-((5-chloro-2-((2-methoxy-4-(4-(4-methylpiperazin-1-yl)piperidin-1-yl)-5-propylphenyl)amino)pyrimidin-4-yl)amino)quinoxalin-5-yl)methanesulfonamide]
GI50 (Ba/F3 EGFR Wild-type): 498 nM | GI50 [1]: 12 nM | GI50 [2]: 4 nM | GI50 [3]: 29 nM | GI50 [4]: 14 nM | GI50 [5]: 5 nM

CCc1cc(Nc2ncc(Cl)c(Nc3ccc4nccnc4c3NS(C)(=O)=O)n2)c(OC)cc1N1CC2CCC1CN2C(C)C (stereo not drawn) [Example B25, N-(6-((5-chloro-2-((5-ethyl-4-(5-isopropyl-2,5-diazabicyclo[2.2.2]octan-2-yl)-2-methoxyphenyl)amino)pyrimidin-4-yl)amino) 105 quinoxaline-5-yl)methanesulfonamide]
GI50 (Ba/F3 EGFR Wild-type): 829 nM | GI50 [1]: 83 nM | GI50 [2]: 22 nM | GI50 [3]: 93 nM | GI50 [4]: 16 nM | GI50 [5]: 26 nM

COc1cc(N2CCC(N3CCN(C)CC3)CC2)c(C)cc1Nc1ncc(Br)c(Nc2ccc3nccnc3c2NS(=O)(=O)C2CC2)n1 [Example A19, N-(6-((5-bromo-2-((2-methoxy-5-methyl-4-(4-(4-methylpiperazin-1-yl)piperidin-1-yl)phenyl)amino)pyrimidin-4-yl)amino)quinoxalin-5-yl)cyclopropanesulfonamide]
GI50 (Ba/F3 EGFR Wild-type): 395 nM | GI50 [1]: 43 nM | GI50 [2]: 24 nM | GI50 [3]: 80 nM | GI50 [4]: 66 nM | GI50 [5]: 6 nM
